Among the data in PubChem BioAssay AID1963976 (Molecular Pharmacology Branch, DTP, NCI, 2024) are viability, T/C and IC50 values, retold here.

Several values for one entry are separate records, joined by “and”; a condition that tells them apart may be missing. Equal values may be shown once. Where only a bound is given, the exact number is not on record here.

In this experiment the test system is 435261-313-R-J1-PDC tumor spheroid viability. Briefly: Anticancer human tumor 435261-313-R-J1-PDC patient-derived colon adenocarcinoma cell line growth inhibition [PI3K]. The conditions noted are these: spheroids with HUVEC and MSC; for viability, T/C: stronger effect = lower value. An excerpt: Combinatorial screen of targeted agents with the PI3K inhibitors inavolisib, alpelisib, duvelisib, and copanlisib in multi-cell type tumor spheroids
A high-throughput screen of multi-cell type tumor spheroids was designed to identify active combinations of targeted small molecules and PI3K pathway inhibitors. Complex spheroids include a stromal component modeled by human endothelial cells (HUVEC) and fibroblasts modeled by human mesenchymal stem cells (MSCs). The concentration ranges selected for each drug and investigational agent were based upon clinically achievable concentrations if the clinical Cmax of the agent was known.
Compounds. The drugs and investigational agents: inavolisib (NSC800729), alpelisib (NSC765974), duvelisib (NSC772469), copanlisib (NSC816437), ipatasertib (NSC767898), afuresertib (NSC778305), talazoparib (NSC767125), sapanisertib (NSC764658), selumetinib (NSC741078), tovorafenib (DAY101, NSC766906), vemurafenib (NSC761431), ravoxertinib (NSC781343), sotorasib (NSC818433), MRTX1133 (NSC 836407), abemaciclib (NSC 768073), palbociclib (NSC758247), venetoclax (NSC 766270), SY5609 (NSC837396), enzalutamide (NSC755605), and darolutamide (NSC825331), were obtained from the National Cancer Institute (NCI) Developmental Therapeutics Program Chemical Repository. The FDA-approved anticancer drug set is available from the NCI Developmental Therapeutics Program. […] The stock solutions were prepared in dimethyl sulfoxide (DMSO, Sigma-Aldrich, St. Louis, MO, cat. D2650) at 800-fold the tested concentration and stored at -70 degrees C prior to their use. All drugs and investigational agents were tested over a range starting from a high concentration at or near the clinical Cmax and decreasing in half-log increments. If the clinical Cmax for an agent had not been determined, the highest concentration tested was 10 microM.
Cell Culture. All cells were maintained in an incubator at 37 degrees C and 5% CO2 with 95% humidity. The PDC lines were cultured according to standard operating procedures established by the NCI PDMR (https://pdmr.cancer.gov/sops/default.htm). All PDCs were thawed and cultured in Matrigel-coated flasks prepared with a working solution of 1X Ham's F-12 nutrient mix, without supplementation (Invitrogen, Waltham, MA, cat. 11765054), 100 U/mL penicillin-streptomycin (Invitrogen, cat. 15140122), and 2.5% Matrigel (Corning Inc., Corning, NY, cat. 354248) for the first three passages. The 354836-022-R-J1-PDC, 475296-252-R-J1-PDC, and 997726-040-R-J2-PDC lines were cultured in 6A media, which includes advanced DMEM/F-12 (Thermo Fisher Scientific, cat. 12634028), 10 mM HEPES (Thermo Fisher Scientific, cat. 15630080), 1X GlutaMAX supplement (Thermo Fisher Scientific, cat. 35050061), 0.1 mg/mL primocin (InvivoGen, San Diego, CA, cat. ant-pm-2), 10% defined fetal bovine serum, heat inactivated (HyClone Laboratories Inc., Logan, UT, cat. SH30070.03HI), 50% L-WRN conditioned media (ATCC, cat. CRL-3276), 1.25 mM N-Acetyl-L-cysteine (Sigma-Aldrich, cat. A9165), 10 mM nicotinamide (Sigma-Aldrich, cat. N0636), 1X B-27 supplement (Thermo Fisher Scientific, cat. 17504044), 1X N-2 supplement (Thermo Fisher Scientific, cat. 17502048), and 10 microM Y-27632 dihydrochloride (Tocris Bioscience, Bristol, United Kingdom, cat. 1254). The 624824-186-R-J2-PDC line was cultured in 6C/Colon 1B media, which includes all 6A media components plus 50 ng/mL human EGF recombinant protein (Thermo Fisher Scientific, cat. PHG0311). […]
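Also: spheroids exposed to compounds for 7 days.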

In general, viability, T/C refers to the result in the treated group divided by that in the control group, in per cent. In general, IC50 refers to the concentration at which inhibition is half-maximal. As for `C#Cc1c(F)ccc2cc(O)cc(-c3ncc4c(N5CC6CCC(C5)N6)nc(OCC56CCCN5CC(F)C6)nc4c3F)c12` (stereo not drawn), the viability, T/C runs as follows: (compound 0.0316 µM) 89.8% and 97.7% and 83.1%; (compound 0.1 µM) 91.7% and 82.7% and 95.5%; (compound 0.316 µM) 124% and 84% and 113%; (compound 1 µM) 95.2% and 62.6% and 64%; (compound 3.16 µM) 61.5% and 78.3% and 73.5%; (compound 10 µM) 36.6% and 30.7% and 31.1%. Also, the IC50 (curve of compound) is 5.36 µM and 5.46 µM and 5.56 µM.
Take `C=CC(=O)N1CCN(c2nc(=O)n(-c3c(C)ccnc3C(C)C)c3nc(-c4c(O)cccc4F)c(F)cc23)C(C)C1` (stereo not drawn): the viability, T/C is 92% [middle of 4 runs] (compound 0.0316 µM); 109% [middle of 4 runs] (compound 0.316 µM); 137% and 124% (2×) and 123% (compound 3.16 µM); 109% [middle of 4 runs] (compound 10 µM). Moreover, the IC50 (curve of compound) was above 10 µM.
Consider `CC(=O)c1c(C)c2cnc(Nc3ccc(N4CCNCC4)cn3)nc2n(C2CCCC2)c1=O`, for which the viability, T/C was 69.4% and 92% and 91.1% (compound 0.000316 µM); 92.5% and 97.7% and 88.2% (compound 0.001 µM); 86.3% and 105% and 87% (compound 0.00316 µM); 105% and 93.1% and 75.4% (compound 0.01 µM); 99.9% and 90.4% and 103% (compound 0.0316 µM); 68.8% and 77.6% and 68.9% (compound 0.1 µM). The IC50 (curve of compound) was above 0.1 µM.
For the molecule `CC(C)NCC(C(=O)N1CCN(c2ncnc3c2C(C)CC3O)CC1)c1ccc(Cl)cc1` (stereo not drawn), the viability, T/C reads like this: (compound 0.0316 µM) 76.4% and 94.8% and 95.1%; (compound 0.1 µM) 90.5% and 77% and 73.2%; (compound 0.316 µM) 95.1% and 85.8% and 97.9%; (compound 1 µM) 57.7% and 48.9% and 79%; (compound 3.16 µM) 58.6% and 52.4% and 76.3%; (compound 10 µM) 20.2% and 36.6% and 29%. For the same molecule, the IC50 (curve of compound) was 3.56 µM and 0.965 µM and 5.92 µM.
`CC(C)n1nc(-c2ccc3oc(N)nc3c2)c2c(N)ncnc21`: the viability, T/C was 75.7% and 66.3% (compound 0.000316 µM); 119% and 65.3% (compound 0.001 µM); 86.6% and 58.6% (compound 0.00316 µM); 67.3% and 48.3% (compound 0.01 µM); 60.8% and 46.7% (compound 0.0316 µM); 18.7% and 12.7% (compound 0.1 µM). For the same molecule, the IC50 (curve of compound) is 0.038 µM and 0.0144 µM.
`CC(Cn1ccc(-c2ccc(C#N)c(Cl)c2)n1)NC(=O)c1cc(C(C)O)[nH]n1` (stereo not drawn): the viability, T/C by setting is: (compound 0.0316 µM) 97.2% and 88.6% and 70.7%; (compound 0.1 µM) 108% and 96.9% and 109%; (compound 0.316 µM) 130% and 117% and 107%; (compound 1 µM) 79.9% and 113% and 70.2%; (compound 3.16 µM) 110% and 105% and 108%; (compound 10 µM) 120% and 102% and 99.3%. Further, under “curve of compound”, the IC50 is above 10 µM.
As for `CC(Nc1ccc2c(c1)OCCn1cc(N3C(=O)OCC3C(F)F)nc1-2)C(N)=O` (stereo not drawn), the viability, T/C runs as follows: (compound 0.1 µM) 31.2% [middle of 7 runs]; (compound 0.316 µM) 23.1% [middle of 7 runs]; (compound 1 µM) 20.4% [middle of 7 runs].
On to `CC(Nc1ncnc2nc[nH]c12)c1cc2cccc(Cl)c2c(=O)n1-c1ccccc1` (stereo not drawn), for which the viability, T/C is 77.1% [middle of 7 runs] (compound 1 µM) and 70.9% [middle of 7 runs] (compound 3.16 µM).
For `CC1(C)CCC(CN2CCN(c3ccc(C(=O)NS(=O)(=O)c4ccc(NCC5CCOCC5)c([N+](=O)[O-])c4)c(Oc4cnc5[nH]ccc5c4)c3)CC2)=C(c2ccc(Cl)cc2)C1`, where the note is “compound 3.16 µM”, the viability, T/C was 107% [middle of 4 runs].
Turning to `CC1(C)CCC(Nc2ncc(C(F)(F)F)c(-c3c[nH]c4c(P(C)(C)=O)c(C#N)ccc34)n2)CN1` (stereo not drawn), the viability, T/C was 68.8% [middle of 4 runs] (compound 0.0316 µM); 59.7% [middle of 4 runs] (compound 0.1 µM); 54.3% [middle of 4 runs] (compound 1 µM); 51.3% [middle of 4 runs] (compound 3.16 µM); 1.48% [middle of 4 runs] (compound 10 µM).
Consider `CCCS(=O)(=O)Nc1ccc(F)c(C(=O)c2c[nH]c3ncc(-c4ccc(Cl)cc4)cc23)c1F`, for which the viability, T/C by setting is: (compound 0.0316 µM) 77% and 97.8%; (compound 0.1 µM) 91% and 84.7%; (compound 0.316 µM) 110% and 111%; (compound 1 µM) 120% and 96.2%; (compound 3.16 µM) 88.7% and 98.1%; (compound 10 µM) 5.61% and 4.11%. The 50% inhibitory concentration (IC50) (curve of compound) was 5.4 µM and 5.68 µM.
In the case of `CCN1CCN(Cc2ccc(Nc3ncc(F)c(-c4cc(F)c5nc(C)n(C(C)C)c5c4)n3)nc2)CC1`, the viability, T/C was 78.8% and 104% and 106% (compound 0.00316 µM); 94.5% and 76.5% and 82.8% (compound 0.01 µM); 61.7% and 67.7% and 78.4% (compound 0.0316 µM); 48.9% and 58.6% and 55.6% (compound 0.1 µM); 47.7% and 44.3% and 50.4% (compound 0.316 µM); 40.8% and 56.3% and 51.8% (compound 1 µM).
Turning to `COc1c(OCCCN2CCOCC2)ccc2c3n(c(=NC(=O)c4cnc(N)nc4)nc12)CCN3`, the viability, T/C (compound 0.0316 µM) was 29% [middle of 6 runs]; the viability, T/C (compound 0.1 µM) was 15.8% [middle of 6 runs]; the viability, T/C (compound 0.316 µM) was 8.17% [middle of 6 runs]; the viability, T/C (compound 1 µM) was 4.83% [middle of 6 runs]. Further, the half-inhibitory concentration (IC50) (compound alone, run of 06/13/2023) is 13.3 nM [middle of 6 runs].
Take `C[C@@H](NC(=O)c1ncnc(N)c1Cl)c1ncc(C(=O)Nc2cc(C(F)(F)F)c(Cl)cn2)s1`: the viability, T/C (compound 0.0316 µM) was 133% and 131% and 118%; the viability, T/C (compound 0.1 µM) is 127% and 106% and 111%; the viability, T/C (compound 0.316 µM) was 154% and 79.3% and 153%; the viability, T/C (compound 1 µM) is 151% and 130% and 124%; the viability, T/C (compound 3.16 µM) was 146% and 120% and 129%; the viability, T/C (compound 10 µM) is 120% and 114% and 88.1%. The IC50 (curve of compound) was above 10 µM.
On to `Cc1nc(NC(=O)N2CCCC2C(N)=O)sc1-c1ccnc(C(C)(C)C(F)(F)F)c1` (stereo not drawn), for which the viability, T/C (compound 0.1 µM) is 82.1% [middle of 6 runs]; the viability, T/C (compound 0.316 µM) is 64.4% [middle of 6 runs]; the viability, T/C (compound 1 µM) was 27.3% [middle of 6 runs]; the viability, T/C (compound 3.16 µM) is 17.2% [middle of 6 runs]; the viability, T/C (compound 10 µM) is 7% [middle of 6 runs]. Besides, where the note is “compound alone, run of 06/12/2023”, the IC50 is 447 nM [middle of 6 runs].
On to `Cn1cnc2c(F)c(Nc3ccc(Br)cc3Cl)c(C(=O)NOCCO)cc21`, for which the viability, T/C reads like this: (compound 0.00949 µM) 33.8% and 34.9% and 45.8%; (compound 0.03 µM) 32.3% and 27.6% and 36%; (compound 0.0949 µM) 12.5% and 23.4% and 29.8%; (compound 0.3 µM) 30.7% and 22.9% and 24.5%; (compound 0.949 µM) 16.1% and 18.4% and 20.9%; (compound 3 µM) 9.65% and 10.9% and 16.8%. Further, the IC50 (curve of compound) was below 0.00949 µM.
Consider `Cn1ncc(Cl)c1-c1cc(C(=O)NC(CN)Cc2cccc(F)c2)sc1Cl` (stereo not drawn), for which the viability, T/C runs as follows: (compound 0.0316 µM) 104% and 107% and 76.9%; (compound 0.1 µM) 82.6% and 66.1% and 92.1%; (compound 0.316 µM) 70.9% and 90.8% and 66.1%; (compound 1 µM) 26.1% and 32.2% and 54.4%; (compound 3.16 µM) 20.6% and 20.1% and 23.6%; (compound 10 µM) 8.15% and 8% and 9.52%. Further, where the note is “curve of compound”, the IC50 was 0.641 µM and 0.571 µM and 0.978 µM.
On to `Cn1nccc1Nc1nccc(-c2ccn(C(CO)c3ccc(Cl)c(F)c3)c(=O)c2)n1` (stereo not drawn), for which the viability, T/C is, setting by setting: (compound 0.316 µM) 68.2% [middle of 4 runs]; (compound 1 µM) 45.7% [middle of 4 runs]; (compound 3.16 µM) 30.4% [middle of 4 runs]; (compound 10 µM) 18.4% [middle of 4 runs].
For the molecule `Cn1ncnc1[C@H]1c2n[nH]c(=O)c3cc(F)cc(c23)N[C@@H]1c1ccc(F)cc1`, the viability, T/C by setting is: (compound 0.00316 µM) 93.3% and 79.8% (2×) and 89.1%; (compound 0.1 µM) 62.6% [middle of 4 runs]. In addition, the IC50 (curve of compound) is above 0.1 µM.
